Measured values taken from patent US20240082296A1, “TREATMENT OF MUSCLE ATROPHY USING DEXTRAN SULFATE” (TX MEDIC AB, priority 2020, published 2024).

Tests used:
[1] = tested on: patients with ALS; experiment: Phase IIa trial in ALS patients: serum myoglobin and creatine kinase (Example 2); assay type: in vivo, human
Protocol: (§1) A clinical trial in the form of a Phase IIa, single-center, open label, single-arm study where the safety, tolerability and possible efficacy of subcutaneously administered dextran sulfate was evaluated in patients with ALS of intermediate progression rate. The clinical trial was conducted at the Sahlgrenska University Hospital, Gothenburg, Sweden and was overseen and approved by the Ethics Committee of the University of Gothenburg and by the Swedish Medical Products Agency.
(§2) Dextran sulfate (Tikomed AB, Viken, Sweden, WO 2016/076780) was administered at 1 mg/kg by […] subcutaneous injection once a week for five weeks to 13 human patients suffering from ALS.
(§3) Blood samples were drawn at defined study intervals by a venous catheter into vacutainer tubes. Laboratory analyses of blood plasma were performed immediately after collection by the Clinical Chemistry Laboratory at the Sahlgrenska University Hospital.

[2] = tested on: human patients suffering from ALS; experiment: ALSAQ-40 ADL and PM sub-scores in ALS patients (Example 1); assay type: in vivo
Protocol: (§4) Dextran sulfate (Tikomed AB, Viken, Sweden, WO 2016/076780) was administered at 2 mg/kg by […] subcutaneous injection once a week for ten weeks to 8 human patients suffering from ALS.
ALSAQ-40 was assessed pre-treatment and weekly thereafter for the 10 treatment weeks and for the visits at the follow-up period.
The ALSAQ-40 sub-scores entitled ‘Activities of Daily Living/Independence’ (ADL) and ‘Physical Mobility’ (PM) reflect the patients' view of their level of physical activity and independence. A falling score reflects improved physical activity.

[3] = tested on: human patients suffering from ALS; experiment: serum lactate in ALS patients before and after dextran sulfate (Example 1); assay type: in vivo; settings: 2 mg/kg s.c. once a week; for serum lactate levels: week 0: 1.78±0.59
Excerpt: Using a longitudinal design, this study was aimed to determine the changes of selected serum metabolites in ALS patients before dextran sulfate administration and after different times following the beginning of the treatment. Changes in the measured metabolites indicated the biochemical response of the patient to dextran sulfate that is underpinning potential disease modification and the mechanisms of action of the drug in this ALS patient population.
as §4
Peripheral venous blood samples were collected from patients before (week 0) and after dextran sulfate administration (week 5 and week 10) after at least 15 minutes of complete rest, using the standard tourniquet procedure, from the antecubital vein into a single VACUETTE® polypropylene tube containing serum separator and clot activator (Greiner-Bio One GmbH, Kremsmunster, Austria). After 30 mins at room temperature (20-25° C.), blood withdrawals were centrifuged at 1,890×g for 10 min to get serum aliquots.
A serum aliquot of 500 μl was supplemented with 1 ml of HPLC-grade acetonitrile, vortexed for 60 secs, centrifuged at the maximum speed in a top-bench centrifuge to precipitate proteins. Supernatants were washed with large volumes of HPLC-grade chloroform to remove organic solvent, centrifuged and the upper aqueous phases were transferred to different tubes, clearly labeled to identify the sample and stored at −80° C. until analyzed to determine different water-soluble compounds.

[4] = tested on: patients with ALS; experiment: clinical observation of muscle function (ALSFRS-R) in ALS patients (Example 2); assay type: in vivo, human; settings: during the five-week treatment period; 1 mg/kg s.c. weekly
Protocol: as §1, §2
ALSFRS-R was assessed pre-treatment and weekly thereafter for the 5 treatment weeks and for the visits at the follow-up period.
The biochemical evidence of reduced muscle degeneration supports the clinical observations of improved muscle function. For example, in the ALSFRS-R, functions mediated by cervical, trunk, lumbosacral, and respiratory muscles are each assessed by 3 items and scores in these categories show close agreement with objective measures of muscle strength.

[5] = tested on: hepatocyte growth factor (HGF); experiment: circulating HGF after dextran sulfate injection in ALS patients (Example 2); assay type: in vivo, human; settings: peak at 2.5 hours after injection; before 820±581; p<0.001
Protocol: as §1, §2, §3
This indicates the potential for direct myogenic, as well as indirect neurotrophic, HGF-mediated effects on muscle atrophy after dextran sulfate administration.

dextran sulfate
reduction in serum creatine kinase levels ([1]; after 4 weeks): 13.3% | reduction in serum myoglobin levels ([1]; after 4 weeks vs Day 1): 30% | serum myoglobin levels ([1]; after 4 weeks, 1 mg/kg s.c. once a week, Day 1: 133.92±126.28, p=0.021): 103.69 ± 72.16 µg/L | serum creatine kinase levels ([1]; after 4 weeks, 1 mg/kg s.c. once a week, before 7.15±5.74, p<0.05): 6.2±5.08 μkat/L | decline of ALSAQ-40 ADL sub-score ([2]; after 10 weeks of treatment): 18.6% | decline of ALSAQ-40 PM sub-score ([2]; after 10 weeks of treatment): 16% | ALSAQ-40 PM sub-score ([2]; after 10 weeks, pre-treatment 27.2±22.2): 22.7±20.2 | ALSAQ-40 ADL sub-score ([2]; after 10 weeks, pre-treatment 58.9±21.4, p<0.05, falling score = improved): 44.4±24.7 | increase of serum lactate levels ([3]; after 5 weeks vs week 0): 29.8% | serum lactate levels ([3]; after 5 weeks, p<0.01): 2.31 ± 1.02 mM | increase of serum lactate levels ([3]; after 10 weeks vs week 0): 70% | serum lactate levels ([3]; after 10 weeks): 3.02 ± 1.59 mM | severe bulbar paresis in two patients [4]: almost complete resolution | circulating HGF, peak [5]: 37.9 ± 14.2 ng/mL
